Test results: patent US4207326A, “Antimicrobial quaternary pyrazole derivatives” (Cilag-Chemie A.G., priority 1979, dated 1980)
Read-outs that look alike come from different tables or passages of the source.

Experiments:
C. tropicalis = assay: Antimycotic activity: Minimum Inhibitory Concentration; format: cell-based, Candida tropicalis NCPF 3111; settings: Candida tropicalis, pH 5.5, C. tropicalis, pH 5.5, 37° C., 72 hours, read-out: Minimum Inhibitory Concentrations
Protocol: (§1) The antimicrobial activity was determined by inoculation of the test microorganism into suitable growth media containing solutions of the compounds at concentrations of 100, 50, 10, 5, 1.0, 0.5 and 0.1 μg/ml. The reference antibiotics used were Gentamicin for the antibacterial tests and Amphotericin B for the antimycotic and antifungal tests. After incubation the antimicrobial activity was recorded as the Minimal Inhibitory Concentration (M.I.C.), i.e., the lowest concentration preventing macroscopically visible growth, for each test compound against each organism.
(§2) An initial solution of each formula (I) compound to be tested in sterile distilled water was prepared at a concentration of 1000 μg/ml. With appropriate dilutions using sterile distilled water, additional solutions were prepared at concentrations of 500, 100, 50, 10, 5 and 1 μg/ml.
The two species, C. albicans and C. tropicalis, were maintained on Sabouraud-Dextrose Agar (Oxoid CM41) and cultures for the preparation of the inoculum were incubated on this agar at 37° C. for 48 hours. 4.5 Ml volumes of citric acid-phosphate buffer pH 5.5 plus Yeast-Nitrogen Base (Difco 0392-15) were then inoculated from the agar cultures and incubated at 37° C. for 48 hours. 0.1 Ml aliquots of these cultures were then added to 100 ml volumes of sterile physiological saline to give the final inocula.
(b) For the tests on each of the C. albicans, C. tropicalis and C. neoformans strains and each of the test and reference compounds, a series of 8 tubes containing 4.5 ml volumes of citric acid-phosphate buffer pH 5.5 plus Yeast-Nitrogen Base (Difco 0392-15) were prepared. To 7 of these were added 0.5 ml volumes of the final solutions of the test compounds, giving final concentrations in the broths of 100, 50, 10, 5, 1.0, 0.5 and 0.1 μg/ml. To the eighth tube in each series was added 0.5 ml of the solvent used and diluted as for the preparation of the 1000 μg/ml solution of the compound. This tube was used as the growth control. The tubes were then inoculated with 0.1 ml aliquots of the inocula prepared as in "(b) Fungi" above. The tubes inoculated with the C. albicans and C. tropicalis were inoculated at 37° C. for 72 hours and the tubes inoculated with the C. neoformans straim were incubated at 30° C. for 72 hours. […] The tubes were then examined for evidence of growth as shown by turbidity of the medium and the lowest concentration of the test compound which prevented fungal growth was recorded as the Minimal Inhibitory Concentration. This test procedure was carried out on two separate days.

[1] = test system: Algae (diatoms, green and blue algae); assay: Algicidal activity in 350 liter concrete pools under outdoor conditions; settings: for killing at 1 µg/mL: 1 mg/l water; for killing at 2 µg/mL: 2 mg/l water; for killing at 4 µg/mL: 4 mg/l water
Excerpt: A comparison of the algicidic activity of the preferred compound, 1-hexadecyl-2,3,5-trimethyl-pyrazolium methosulfate, with said standard is shown in Table 4.
Results given above are mean values from 2 replicates of
Test conditions: Severe with high infection pressure after artificial
algae inoculation in 350 liter concrete pools under outdoor conditions.
Stains included: Green algae: Chlorella, Zygnema, Hormidium + Scenedesmus
Blue algae: Phormidium species
Diatoms: Nitzschea pallea
Water temperature: Day: 21° C., night: 18°-20° C.

S. aureus = assay: Antibacterial activity: Minimum Inhibitory Concentration; format: cell-based, Staphylococcus aureus ATCC 6538; settings: Staphylococcus aureus, 24 hours
Protocol: as §1, §2
(§3) They were cultured and maintained on Tryptone Soy Agar (Oxoid CM 131), with the addition of 10% horse blood for the S. pyogenes.
(§4) To prepare the organisms as inocula for the test, slopes of this medium were streaked with the organisms and incubated at 37° C. for 24 hours. 4.5 Ml volumes of Brian-Heart Infusion Broth (Oxoid CM 225) were then inoculated with a platinum loop from the agar slope cultures and incubated for 24 hours at 37° C. The final inocula were then prepared by adding 0.1 ml aliquots of the Brain-Heart Infusion Broth cultures to 100 ml volumes of sterile physiological saline.
(§5) (a) For the test on each of the bacterial strains and each of the test and reference compounds, a series of 8 tubes containing 4.5 ml volumes of Brain-Heart Infusion Broth (Oxoid CM 225) were prepared. To 7 of these were added 0.5 ml volumes of the final solutions of the test compouns, giving final concentrations in the broths of 100, 50, 10, 5, 1.0, 0.5 and 0.1 μg/ml. To the eighth tube in each series was added 0.5 ml of the solvent used and diluted as for the preparation of the 1000 μg/ml solution of the compound. This tube was used as the growth control. The tubes were inoculated with 0.02 ml aliquots of the inocula prepared in accordance with "(a) Bacteria" above, and incubated at 37° C. for 24 hours. The tubes were then examined for evidence of bacterial growth as shown by turbidity of the medium and the lowest concentration of the test compound which prevented bacterial growth was recorded as the Minimal Inhibitory Concentration. This test procedure was carried out on two separate days.

S. pyogenes = assay: as above; format: cell-based, Streptococcus pyogenes NCTC 8198; settings: Streptococcus pyogenes, 24 hours
Protocol: as §1, §2, §3, §4, §5

P. mirabilis = assay: as above; format: cell-based, Proteus mirabilis NCTC 8559; settings: Proteus mirabilis, P. mirabilis, 37° C., 24 hours, read-out: Minimum Inhibitory Concentration
Protocol: as §1, §2, §3, §4, §5

[2] = mean over weeks 1-6, read-out: % algicidal activity, --x (mean)
[3] = 168 h, 1 week after treatment, mean of 2 replicates, read-out: % algicidal activity
[4] = 336 h, 2 weeks after treatment, mean of 2 replicates, read-out: % algicidal activity
[5] = 504 h, 3 weeks after treatment, mean of 2 replicates, read-out: % algicidal activity
[6] = 672 h, 4 weeks after treatment, mean of 2 replicates, read-out: % algicidal activity
[7] = 840 h, 5 weeks after treatment, mean of 2 replicates, read-out: % algicidal activity
[8] = 1008 h, 6 weeks after treatment, mean of 2 replicates, read-out: % algicidal activity

Question: Which results are given for `CCCCCCCCCCCCCCCCn1c(C)cc(C)[n+]1C` [Example 2, 1-hexadecyl-2,3,5-trimethyl-pyrazolium methosulfate]?
Answer: MIC (C. tropicalis; Day 1): 1 µg/mL; MIC (C. tropicalis; Day 2): 0.5 µg/mL; killing at 1 µg/mL [1, 2]: 96%; killing at 2 µg/mL [1, 2]: 99%; killing at 4 µg/mL [1, 2]: 100%; killing at 1 µg/mL [1, 3]: 100%; killing at 2 µg/mL [1, 3]: 100%; killing at 4 µg/mL [1, 3]: 100%; killing at 1 µg/mL [1, 4]: 100%; killing at 2 µg/mL [1, 4]: 100%; killing at 4 µg/mL [1, 4]: 100%; killing at 2 µg/mL [1, 5]: 100%; killing at 4 µg/mL [1, 5]: 100%; killing at 1 µg/mL [1, 6]: 96%; killing at 2 µg/mL [1, 6]: 100%; killing at 4 µg/mL [1, 6]: 100%; killing at 1 µg/mL [1, 7]: 93%; killing at 2 µg/mL [1, 7]: 100%; killing at 4 µg/mL [1, 7]: 100%; killing at 1 µg/mL [1, 8]: 88%; killing at 2 µg/mL [1, 8]: 98%; killing at 4 µg/mL [1, 8]: 100%; MIC (S. aureus; Day 1, 37° C.): 0.5 µg/mL; MIC (S. aureus; Day 2, 37° C.): 0.5 µg/mL; MIC (S. pyogenes; Day 1, 37° C.): 0.5 µg/mL; MIC (S. pyogenes; Day 2, 37° C.): 0.5 µg/mL; MIC (P. mirabilis; Day 1): 10 µg/mL; MIC (P. mirabilis; Day 2): 10 µg/mL
